Data taken from patent US7256208B2 (priority 2003, dated 2007).

Key:
AR = molecular target: T1, AR (Rattus norvegicus, UniProt P15207)
T1 sequence (P15207 1-902): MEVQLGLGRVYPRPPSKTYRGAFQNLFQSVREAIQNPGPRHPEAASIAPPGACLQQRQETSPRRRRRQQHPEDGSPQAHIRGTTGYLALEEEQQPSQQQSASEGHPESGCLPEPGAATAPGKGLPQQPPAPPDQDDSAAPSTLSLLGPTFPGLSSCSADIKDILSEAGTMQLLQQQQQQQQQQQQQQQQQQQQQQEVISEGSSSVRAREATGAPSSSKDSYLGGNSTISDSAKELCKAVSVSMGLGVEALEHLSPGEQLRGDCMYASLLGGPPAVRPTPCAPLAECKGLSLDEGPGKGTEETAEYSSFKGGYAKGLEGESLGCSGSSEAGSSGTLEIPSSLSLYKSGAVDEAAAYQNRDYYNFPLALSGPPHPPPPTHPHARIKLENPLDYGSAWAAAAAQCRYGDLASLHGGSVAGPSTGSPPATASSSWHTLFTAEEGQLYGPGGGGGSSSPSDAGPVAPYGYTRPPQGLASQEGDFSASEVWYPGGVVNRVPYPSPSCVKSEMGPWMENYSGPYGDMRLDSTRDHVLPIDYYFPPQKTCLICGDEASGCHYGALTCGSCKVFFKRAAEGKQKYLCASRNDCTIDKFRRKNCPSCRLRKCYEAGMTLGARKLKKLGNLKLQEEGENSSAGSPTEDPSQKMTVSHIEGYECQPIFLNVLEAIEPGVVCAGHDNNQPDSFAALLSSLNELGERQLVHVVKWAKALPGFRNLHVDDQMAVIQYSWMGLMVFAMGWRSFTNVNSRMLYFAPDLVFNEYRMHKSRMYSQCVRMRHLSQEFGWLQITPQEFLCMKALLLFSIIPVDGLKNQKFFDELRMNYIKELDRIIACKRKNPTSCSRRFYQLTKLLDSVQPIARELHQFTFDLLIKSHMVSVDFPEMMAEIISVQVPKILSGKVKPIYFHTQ
Source text: The activity of compounds of the present invention as AR agonists was investigated in an immature male rat model, a recognized test of anabolic effects in muscle and sustaining effects in sex organs for a given compound, as described in L. G. Hershberger et al., Proc. Soc. […] Biol. Med., 83, 175 (1953); B. L. Beyler et al, “Methods for evaluating anabolic and catabolic agents in laboratory animals”, J. Amer. Med. Women's Ass., 23, 708 (1968); H. Fukuda et al., “Investigations of the levator ani muscle as an anabolic steroid assay”, Nago Dai. Yak. Ken. Nem. 14, 84 (1966) the disclosures of which are herein incorporated by reference.
The basis of this assay lies in the well-defined action of androgenic agents on the maintenance and growth of muscle tissues and sexual accessory organs in animals and man. […] J. Anat. […] Ital. Biol. Sper. […] II. […] Ital. Biol. Sper. 42, 1600 (1966); A. Boris et al., Steroids 15, 61 (1970). As described above, the effects of androgens on maintenance of male sexual accessory organs, such as the prostate and seminal vesicles, is well described. Castration results in rapid involution and atrophy of the prostate and seminal vesicles. This effect can be reversed by exogenous addition of androgens. […]

[1] = tested on: wild type AR (MDA 453 cells); conditions: read-out: Kd for [3H]-DHT, Scatchard analysis
Experimental: For the whole-cell binding assay, human LNCaP cells (T877A mutant AR) or MDA 453 (wild type AR) in 96-well microtiter plates containing RPMI 1640 or DMEM supplemented with 10% charcoal stripped CA-FBS (Cocaleco Biologicals) respectively, were incubated at 37° C. to remove any endogenous ligand that might be complexed with the receptor in the cells.
For the saturation analysis, the difference between the total binding and the non-specific binding, was defined as specific binding. […] See e.g. D. Rodbard, Mathematics and statistics of ligand assays: an illustrated guide: In: J. Langon and J. J. Clapp, eds., Ligand Assay, Masson Publishing U.S.A., Inc., New York, pp. 45-99, (1981), the disclosure of which is herein incorporated by reference.
Two replicates were used for each sample.

Q: Which melting point does the source give for `N#Cc1ccc(N2C(=O)N/C(=C\c3ccccc3O)C2=O)c2ccccc12` here?
A: 251 to 252 °C

Q: With `N#Cc1ccc(N2C(=O)N/C(=C\c3ccc(O)cc3)C2=O)c2ccccc12` as the molecule, how does the melting point read?
A: > 275 °C

Q: For `CCC(=O)O[C@H]1CC[C@H]2[C@@H]3CCC4=CC(=O)CC[C@]4(C)[C@H]3CC[C@]12C` [TP, testosterone propionate], which “potency relative to free T” value (AR; TP versus free T) is on record?
A: 10-30 fold

Q: What about the “EC50 (increase in organ weight)” value (AR; castrated rats, dosing for 3 days) of the same molecule?
A: ~0.03 mg

Q: For “tritiated dihydrotestosterone [[^3H]-DHT]”, which Kd [1] is on record?
A: 0.7 nM
